Experimental data taken from ChEMBL document CHEMBL1201862, “PubChem BioAssay data set” (2004).
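Compound exposure: 48 hours, 5 concentrations, 96-well plates. The concentration for 50% growth inhibition is given as GI50.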 Activity calls are given as the source filed them. Rule as the data show it: active = GI50 up to about 1.1 µM and inactive = higher.

Columns and labels:
Assay in all cases: inhibition of tumour cell growth, NCI panel, 48 h
ACHN = tested on: ACHN
HL-60 = tested on: HL-60
OVCAR-8 = tested on: OVCAR-8
DU-145 = tested on: DU-145
SF-539 = tested on: SF-539
NCI-H23 = tested on: NCI-H23
SF-295 = tested on: SF-295
HOP-62 = tested on: HOP-62
CCRF-CEM = tested on: CCRF-CEM
MDA-N = tested on: MDA-N
T47D = tested on: T47D
NCI-H226 = tested on: NCI-H226
UACC-257 = tested on: UACC-257
MDA-MB-435 = tested on: MDA-MB-435
UACC-62 = tested on: UACC-62
SNB-19 = tested on: SNB-19
KM12 = tested on: KM12
OVCAR-4 = tested on: OVCAR-4
SNB-75 = tested on: SNB-75
HOP-92 = tested on: HOP-92

Measured: GI50

CCOC(=O)c1c(NC(=O)c2ccc(Br)cc2)sc2c1CCCC2
inactive: ACHN > 100 µM | HL-60 > 100 µM | OVCAR-8 > 100 µM | DU-145 > 100 µM | SF-539 > 100 µM | NCI-H23 > 100 µM | SF-295 > 100 µM | HOP-62 > 100 µM | CCRF-CEM > 100 µM | MDA-N > 100 µM | T47D > 100 µM | NCI-H226 > 100 µM | UACC-257 > 100 µM | MDA-MB-435 > 100 µM | UACC-62 > 100 µM | SNB-19 > 100 µM | KM12 39.1 µM

N#Cc1c(C#N)c(SSc2c(C#N)c(C#N)c(N)n2-c2ccccc2)n(-c2ccccc2)c1N
inactive: ACHN 5.08 µM | OVCAR-8 > 100 µM | DU-145 18.6 µM | OVCAR-4 2.25 µM | SF-539 92.9 µM | NCI-H23 23.6 µM | SNB-75 31.8 µM | SF-295 24.9 µM | HOP-62 28.4 µM | HOP-92 2.08 µM | MDA-N 28.8 µM | T47D 2.44 µM | NCI-H226 22.3 µM | UACC-257 24.8 µM | MDA-MB-435 14.9 µM | UACC-62 16.9 µM | SNB-19 22.4 µM | KM12 25.4 µM

Cc1ccc(S(=O)(=O)c2ccsc2NC(=O)C(F)(F)F)cc1
inactive: ACHN 39.2 µM | OVCAR-8 31.8 µM | DU-145 42.6 µM | OVCAR-4 20.6 µM | SF-539 39.7 µM | NCI-H23 34.5 µM | SNB-75 24.9 µM | SF-295 37.8 µM | HOP-62 34.7 µM | HOP-92 30.9 µM | MDA-N 23.6 µM | T47D 39.3 µM | NCI-H226 39.7 µM | UACC-257 30.3 µM | MDA-MB-435 44.5 µM | UACC-62 35.7 µM | SNB-19 65 µM | KM12 31.1 µM

O=C(O)c1ccccc1/C=N/N=C1NCCN1
inactive: ACHN 98.9 µM | HL-60 49.4 µM | OVCAR-8 > 100 µM | OVCAR-4 > 100 µM | SF-539 > 100 µM | NCI-H23 > 100 µM | SNB-75 > 100 µM | SF-295 > 100 µM | HOP-62 > 100 µM | CCRF-CEM > 100 µM | HOP-92 22.7 µM | MDA-N > 100 µM | T47D > 100 µM | NCI-H226 > 100 µM | UACC-257 84.1 µM | MDA-MB-435 > 100 µM | UACC-62 > 100 µM | SNB-19 > 100 µM | KM12 > 100 µM

N#CCc1nc2cc(C(F)(F)F)ccc2s1
inactive: ACHN 56 µM | OVCAR-8 30.1 µM | DU-145 48.3 µM | OVCAR-4 38.6 µM | SF-539 51.8 µM | NCI-H23 27.7 µM | SNB-75 35.3 µM | SF-295 49.4 µM | HOP-62 73.3 µM | HOP-92 20.4 µM | MDA-N 32.2 µM | T47D 23.1 µM | NCI-H226 57.8 µM | UACC-257 34.4 µM | MDA-MB-435 40.4 µM | KM12 64.6 µM

Cc1c2c(cc3c1C(=O)C(O)=C([C@@H](C)CO)C3=O)C(C)(C)CCC2
inactive: OVCAR-8 25.5 µM | DU-145 30.5 µM | OVCAR-4 31.3 µM | NCI-H23 17.7 µM | SNB-75 21.6 µM | SF-295 22.3 µM | HOP-62 22.4 µM | CCRF-CEM 10.1 µM | HOP-92 35 µM | MDA-N 30.7 µM | T47D 32.8 µM | NCI-H226 33.8 µM | UACC-257 35.6 µM | MDA-MB-435 26.9 µM | UACC-62 28.2 µM | SNB-19 5.07 µM | KM12 14.3 µM

CN1CCC/C1=C1/C(=O)N(c2ccccc2)N=C1c1ccc[nH]1
inactive: ACHN > 100 µM | HL-60 > 100 µM | OVCAR-8 > 100 µM | DU-145 > 100 µM | OVCAR-4 > 100 µM | NCI-H23 > 100 µM | SNB-75 > 100 µM | SF-295 > 100 µM | HOP-62 > 100 µM | CCRF-CEM > 100 µM | MDA-N > 100 µM | T47D > 100 µM | NCI-H226 > 100 µM | UACC-257 > 100 µM | MDA-MB-435 > 100 µM | UACC-62 > 100 µM | SNB-19 > 100 µM | KM12 > 100 µM

N#Cc1sc2c(c1OC(=O)c1ccco1)c(=O)n(-c1ccccc1)c(=S)n2-c1ccccc1
inactive: HL-60 67.5 µM | OVCAR-8 29.9 µM | DU-145 48.5 µM | OVCAR-4 23.6 µM | SF-539 26.1 µM | NCI-H23 34.8 µM | SNB-75 18.8 µM | SF-295 26.7 µM | HOP-62 25.9 µM | CCRF-CEM > 10 µM | MDA-N 20.8 µM | T47D 21.1 µM | NCI-H226 34.3 µM | UACC-257 62.2 µM | MDA-MB-435 27.7 µM | UACC-62 15.3 µM | SNB-19 36.4 µM | KM12 30.3 µM

N#C/C(=C\c1ccc2ccccc2c1)C(=O)c1ccccc1
inactive: ACHN > 100 µM | HL-60 30.9 µM | OVCAR-8 33.7 µM | DU-145 > 100 µM | OVCAR-4 > 100 µM | SF-539 > 100 µM | NCI-H23 > 57.4 µM | SNB-75 93.1 µM | SF-295 > 54.6 µM | HOP-62 20.8 µM | CCRF-CEM 23.8 µM | MDA-N 44.6 µM | T47D 36 µM | NCI-H226 > 100 µM | UACC-257 82 µM | MDA-MB-435 19.4 µM | UACC-62 > 57 µM | SNB-19 > 82.4 µM | KM12 > 100 µM

O=C(O)Cn1ccc(=O)c2cc([N+](=O)[O-])ccc21
inactive: ACHN > 100 µM | HL-60 > 100 µM | OVCAR-8 > 100 µM | DU-145 38.1 µM | SF-539 > 100 µM | NCI-H23 > 100 µM | SNB-75 > 100 µM | SF-295 > 100 µM | HOP-62 > 100 µM | CCRF-CEM > 100 µM | MDA-N > 100 µM | T47D 33.1 µM | NCI-H226 > 100 µM | UACC-257 > 100 µM | MDA-MB-435 > 100 µM | UACC-62 > 100 µM | SNB-19 > 100 µM | KM12 > 100 µM

Cc1csc2c1-n1cccc1C2=O
inactive: ACHN > 100 µM | OVCAR-8 > 100 µM | DU-145 > 100 µM | OVCAR-4 > 100 µM | SNB-75 > 100 µM | SF-295 > 100 µM | HOP-62 53 µM | CCRF-CEM > 100 µM | MDA-N 99.1 µM | T47D > 100 µM | NCI-H226 > 100 µM | UACC-257 > 100 µM | MDA-MB-435 67.3 µM | UACC-62 > 100 µM | SNB-19 > 100 µM | KM12 > 100 µM
